Data taken from article PMC10777855, “Pharmacological validation of dihydrofolate reductase as a drug target in Mycobacterium abscessus” (Antimicrobial Agents and Chemotherapy, 2023).
pIC50: −log10 of the molar value.

Each compound was assayed against T1, M. abscessus DHFR (recombinant) (Mycobacteroides abscessus, UniProt B1MD46) (assay: NADPH absorbance decrease at […] nm (DHFR kit CS0340)). Settings: read-out: IC50 (μM) ^ b.
T1 construct: gene MAB_3090c; E. coli codon-optimised gene in pET28a (NcoI/XhoI), N-terminal His6-tag, expressed in E. coli BL21(DE3), Ni-NTA purified; tag removal not mentioned
T1 sequence (B1MD46 1-163): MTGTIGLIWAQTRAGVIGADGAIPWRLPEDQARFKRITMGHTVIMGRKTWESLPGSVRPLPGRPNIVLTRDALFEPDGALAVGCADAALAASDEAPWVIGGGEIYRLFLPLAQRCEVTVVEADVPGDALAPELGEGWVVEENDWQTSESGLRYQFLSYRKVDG
Assay type: biochemical

SMILES	IC50 [µM]
N#Cc1ccc(Cn2ccc3c4c(N)nc(N)nc4ccc32)cc1 [PQD-1]	0.0025
COc1cc(Cc2cnc(N)nc2N)cc(OC)c1Br [Brodimoprim]	1.7
COc1cc(Cc2cnc(N)nc2N)c2c(c1OC)OC(C1CC1)C=C2 (stereo not shown) [Iclaprim]	0.6
CC1(C)N=C(N)N=C(N)N1OCCCOc1cc(Cl)c(Cl)cc1Cl [WR99210]	0.016
CN(Cc1cnc2nc(N)nc(N)c2n1)c1ccc(C(=O)N[C@@H](CCC(=O)O)C(=O)O)cc1 [Methotrexate]	0.016
C#CCC(Cc1cnc2nc(N)nc(N)c2n1)c1ccc(C(=O)N[C@@H](CCC(=O)O)C(=O)O)cc1 (stereo partly shown) [Pralatrexate]	0.21
COCCOc1c(OC)cc(Cc2cnc(N)nc2N)cc1OC [Tetroxoprim]	20
CCc1nc(N)nc(N)c1-c1ccc(Cl)cc1 [Pyrimethamine]	4.7
COc1cc(Cc2cnc(N)nc2N)cc(OC)c1OC [Trimethoprim]	25
COc1cc(NCc2ccc3nc(N)nc(N)c3c2C)cc(OC)c1OC [Trimetrexate]	0.005

Same assay, conditions: read-out: IC50 ^ b

SMILES	pIC50
Nc1nc(N)c2c(ccc3c2ccn3Cc2cccc(Cl)c2)n1 [PQD-9]	7.52
COC(=O)c1ccc(Cn2ccc3c4c(N)nc(N)nc4ccc32)cc1 [PQD-3]	7.82
Cc1ccccc1Cn1ccc2c3c(N)nc(N)nc3ccc21 [PQD-6]	7.82
Nc1nc(N)c2c(ccc3c2ccn3Cc2ccc3ccccc3c2)n1 [PQD-7]	7.82
N#Cc1cccc(Cn2ccc3c4c(N)nc(N)nc4ccc32)c1 [PQD-2]	8.47
N#Cc1ccccc1Cn1ccc2c3c(N)nc(N)nc3ccc21 [PQD-5]	7.80
Cc1cccc(Cn2ccc3c4c(N)nc(N)nc4ccc32)n1 [PQD-4]	7.82
CC(C)Nc1nc(N)c2c(ccc3c2ccn3Cc2ccc(C(C)C)cc2)n1 [PQD-10]	5.39
Nc1nc(N)c2c(ccc3c2ccn3Cc2ccc(F)cc2)n1 [PQD-8]	7.70
